Tested on: single cells from the ventral hippocampus (vHipp)
Assay: Single-cell RNA sequencing (scRNA-seq) of the ventral hippocampus after ketamine treatment; differential expression per cell type; for Mean-Ket: unit not given here
[1] = Endothelial, ketamine 10 mg/kg i.p.
[2] = Endothelial, ketamine 10 mg/kg i.p. vs saline

CNC1(c2ccccc2Cl)CCCCC1=O (racemic) [ketamine, (R,S)-ketamine]
Change (Atxn2, Glut Neurons): Down
Mean-Ket (Atxn2, Glut Neurons): 1.752
logFC (Atxn2, Glut Neurons): −0.131
Change (Cars2, Glut Neurons): Down
Mean-Ket (Cars2, Glut Neurons): 2.514
logFC (Cars2, Glut Neurons): −0.095
Change (Casc4, Glut Neurons): Down
Mean-Ket (Casc4, Glut Neurons): 3.269
logFC (Casc4, Glut Neurons): −0.109
Change (Ccdc62, Glut Neurons): Down
Mean-Ket (Ccdc62, Glut Neurons): 1.370
logFC (Ccdc62, Glut Neurons): −0.131
Change (Cep89, Glut Neurons): Down
Mean-Ket (Cep89, Glut Neurons): 2.584
logFC (Cep89, Glut Neurons): −0.104
Change (Chn1, Glut Neurons): Down
Mean-Ket (Chn1, Glut Neurons): 1.219
logFC (Chn1, Glut Neurons): −0.192
Change (Chpt1, Glut Neurons): Down
Mean-Ket (Chpt1, Glut Neurons): 2.768
logFC (Chpt1, Glut Neurons): −0.092
Change (Cox6b1, Glut Neurons): Down
Mean-Ket (Cox6b1, Glut Neurons): 1.063
logFC (Cox6b1, Glut Neurons): −0.161
Change (Cpe, Glut Neurons): Down
Mean-Ket (Cpe, Glut Neurons): 1.060
logFC (Cpe, Glut Neurons): −0.123
Change (Cxcr2, Glut Neurons): Down
Mean-Ket (Cxcr2, Glut Neurons): 2.721
logFC (Cxcr2, Glut Neurons): −0.098
Change (D3Ertd254e, Glut Neurons): Down
Mean-Ket (D3Ertd254e, Glut Neurons): 1.540
logFC (D3Ertd254e, Glut Neurons): −0.179
Change (D6Wsu163e, Glut Neurons): Down
Mean-Ket (D6Wsu163e, Glut Neurons): 2.314
logFC (D6Wsu163e, Glut Neurons): −0.101
Change (Dars, Glut Neurons): Down
Mean-Ket (Dars, Glut Neurons): 1.380
logFC (Dars, Glut Neurons): −0.115
Change (Dhx30, Glut Neurons): Down
Mean-Ket (Dhx30, Glut Neurons): 1.310
logFC (Dhx30, Glut Neurons): −0.133
Change (Dpp10, Glut Neurons): Up
Mean-Ket (Dpp10, Glut Neurons): 1.344
logFC (Dpp10, Glut Neurons): 0.216
Change (Eef1akmt3, Astrocytes): Up
Mean-Ket (Eef1akmt3, Astrocytes): 1.918
logFC (Eef1akmt3, Astrocytes): 0.336
Change (Eif4a2, Glut Neurons): Down
Mean-Ket (Eif4a2, Glut Neurons): 1.524
logFC (Eif4a2, Glut Neurons): −0.234
Change (Enah, Glut Neurons): Down
Mean-Ket (Enah, Glut Neurons): 2.212
logFC (Enah, Glut Neurons): −0.108
Akap5 Mean-Ket [1]: 3.573
Eef1akmt3 Mean-Ket [1]: 1.735
Ilf2 Mean-Ket [1]: 1.206
Lrrc17 Mean-Ket [1]: 2.859
Saa3 Mean-Ket [1]: 1.407
Slco1a4 Mean-Ket [1]: 1.231
Vps8 Mean-Ket [1]: 1.667
Akap5 Change [2]: Down
Akap5 logFC [2]: −0.447
Eef1akmt3 Change [2]: Up
Eef1akmt3 logFC [2]: 0.511
Ilf2 Change [2]: Up
Ilf2 logFC [2]: 0.361
Lrrc17 Change [2]: Down
Lrrc17 logFC [2]: −0.407
Saa3 Change [2]: Up
Saa3 logFC [2]: 0.366
Slco1a4 Change [2]: Up
Slco1a4 logFC [2]: 0.415
Vps8 Change [2]: Down
Vps8 logFC [2]: −0.398
Change (Exosc5, Glut Neurons): Down
Mean-Ket (Exosc5, Glut Neurons): 1.196
logFC (Exosc5, Glut Neurons): −0.109
Change (Fam193a, Glut Neurons): Down
Mean-Ket (Fam193a, Glut Neurons): 2.472
logFC (Fam193a, Glut Neurons): −0.101
Change (Fgd4, Glut Neurons): Up
Mean-Ket (Fgd4, Glut Neurons): 2.397
logFC (Fgd4, Glut Neurons): 0.144
Change (Foxr1, Glut Neurons): Down
Mean-Ket (Foxr1, Glut Neurons): 2.380
logFC (Foxr1, Glut Neurons): −0.113
Change (Fubp1, Glut Neurons): Down
Mean-Ket (Fubp1, Glut Neurons): 2.828
logFC (Fubp1, Glut Neurons): −0.093
Change (Furin, Glut Neurons): Down
Mean-Ket (Furin, Glut Neurons): 1.335
logFC (Furin, Glut Neurons): −0.132
Change (Gapdh-ps15, Astrocytes): Down
Mean-Ket (Gapdh-ps15, Astrocytes): 1.333
logFC (Gapdh-ps15, Astrocytes): −0.157
Change (Gclm, Glut Neurons): Down
Mean-Ket (Gclm, Glut Neurons): 0.984
logFC (Gclm, Glut Neurons): −0.113
Change (Gmeb1, Glut Neurons): Down
Mean-Ket (Gmeb1, Glut Neurons): 2.782
logFC (Gmeb1, Glut Neurons): −0.087
Change (Golga3, Astrocytes): Down
Mean-Ket (Golga3, Astrocytes): 1.515
logFC (Golga3, Astrocytes): −0.136
Change (H2-T23, Glut Neurons): Down
Mean-Ket (H2-T23, Glut Neurons): 1.757
logFC (H2-T23, Glut Neurons): −0.173
Change (Hook3, Glut Neurons): Down
Mean-Ket (Hook3, Glut Neurons): 2.556
logFC (Hook3, Glut Neurons): −0.089
Change (Hsd3b2, Glut Neurons): Up
Mean-Ket (Hsd3b2, Glut Neurons): 1.162
logFC (Hsd3b2, Glut Neurons): 0.193
Change (Il17ra, Glut Neurons): Up
Mean-Ket (Il17ra, Glut Neurons): 1.490
logFC (Il17ra, Glut Neurons): 0.252
Change (Ilf2, Astrocytes): Up
Mean-Ket (Ilf2, Astrocytes): 1.350
logFC (Ilf2, Astrocytes): 0.295
Change (Ipo7, Glut Neurons): Down
Mean-Ket (Ipo7, Glut Neurons): 1.687
logFC (Ipo7, Glut Neurons): −0.119
Change (Kcnj16, Glut Neurons): Up
Mean-Ket (Kcnj16, Glut Neurons): 1.052
logFC (Kcnj16, Glut Neurons): 0.227
Change (Kif3a, Glut Neurons): Down
Mean-Ket (Kif3a, Glut Neurons): 1.198
logFC (Kif3a, Glut Neurons): −0.141
Change (Loxl2, Glut Neurons): Down
Mean-Ket (Loxl2, Glut Neurons): 2.605
logFC (Loxl2, Glut Neurons): −0.098
Change (Lrrc17, Astrocytes): Down
Mean-Ket (Lrrc17, Astrocytes): 3.291
logFC (Lrrc17, Astrocytes): −0.192
Change (Lsm8, Glut Neurons): Down
